Results as given in US20050175976A1, “Meiosis activating sterol augments implantation rate” (priority 1999, published 2005).
Marks after values point to notes of the source that are not given here.

Key:
[1] = tested on: sterol 14-reductase (Δ14R); details: AY 0.1 μM, cultured rat hepatocytes; cited from earlier work
[2] = tested on: mouse cumulus enclosed oocytes; assay: Induction of resumption of meiosis in mouse cumulus enclosed oocytes exposed to AY9944-A-7; type: cell-based
Method: Immature female C57BI/2J B6D2 mice (11-15 g) were stimulated with exogenous gonadotropins (7.5 IU per mouse; Gonadoplex, Leo, Ballerup, Denmark). Forty-eight hours after injection with gonadotropins, the mice were sacrificed and the ovaries removed. Cumulus enclosed oocytes (CEO) were recovered by puncturing individual follicles and collected in a culture medium (a-MEM, Gibco, BRL) supplemented with 3 mg/ml bovine serum albumin, 5 mg/ml human serum albumin, 2 mM L-glutamine, 100 IU/ml penicillin, 100 μg/ml streptomycin and 4 mM hypoxanthine (control medium).
Induction of resumption of meiosis in mouse cumulus enclosed oocytes exposed to an inhibitor of sterol Δ14-reductase (AY9944-A-7) during culture.
Oocytes from 10-15 mice were pooled and randomly divided into the different test groups. The tests were performed using 4-well dishes (Nunclon, Roskilde, Denmark) each well containing 20-50 oocytes in 400 μl culture medium. Each dish had one well serving as control and the three other wells as tests.
All test media were prepared using HX-medium. AY9944-A-7 (AY) was kindly provided by Wyeth-Ayerst, Princeton, N.J., USA. AY has no structural similarities to MAS. Stock solutions of AY9944 in water were stored at −20° C., and was added directly to the HX-medium immediately prior to oocyte culture. AY was used in concentrations from 0.2 to 25 μM.

[3] = tested on: mouse cumulus enclosed oocytes; assay: Resumption of meiosis (GVBD) in mouse cumulus enclosed oocytes exposed to Amphotericin B; type: cell-based
Method: Amphotericin B is a medical product used against fungal infections by inhibiting cholesterol biosynthesis. It has no structural similarities to MAS. Its effect on resumption of meiosis was tested on mouse cumulus enclosed oocytes, in vitro. Ovarian stimulation was performed on immature female mice and the cumulus enclosed oocytes (CEO) isolated as described in Example 3.
Cumulus enclosed oocytes were cultured separately in 4-well dishes (Nuncleon, Roskilde, Denmark), 0.4 ml medium in each well containing control medium or medium supplemented with Amphotericin B (Bristol-Myers Squibb) in a 100% humidified atmosphere of 5% CO2 with 95% air at 37° C.
The effect of Amphotericin in concentrations of 0.6 and 1.2 μg/ml was evaluated after 22 hours in culture.
In another series of experiments, i.e. priming of CEO, the culture period with Amphotericin, priming period, varied from 5 min. to 240 min. in test medium with 1.2 μg/ml Amphotericin. After the priming period, the CEO were transferred to control medium and the culture continued for a total of 22 hours.
By the end of the culture period, germinal […] breakdown (GVBD) was scored by examining the oocyte in an inverted microscope. The percentage of oocytes with GVBD per total number of oocytes (% GVBD) was calculated.

[4] = tested on: mouse cumulus enclosed oocytes; assay: Resumption of meiosis (GVBD) of mouse oocytes cultured in vitro with FSH and/or EGF; type: cell-based; details: EGF 0.5 ng/ml, 22-24 h, HX-medium
Method: Immature female mice (B6D2-F1 strain C57B1/2J) were kept under controlled light and temperature conditions with free access to food and water. […] The percentage of oocytes with GVBD per total number of oocytes (% GVBD) was calculated.

Cl.Cl.Clc1ccccc1CNCC1CCC(CNCc2ccccc2Cl)CC1 (stereo not shown) [AY, AY9944-A-7]
Mode of action on Δ14R [1]: competitive inhibitor | Oocyte maturation of CEO (FIG. 2) ([2]; AY 0.2 to 25 μM in HX-medium): stimulates oocyte maturation of CEO in a dose-dependent way | GVBD compared to the controls (FIG. 2) ([2]; AY 5, 10 and 25 μM, p<0.05, p<0.001 and p<0.001): increase GVBD significantly

C[C@@H]1[C@H](O)[C@@H](C)/C=C/C=C/C=C/C=C/C=C/C=C/C=C/[C@H](O[C@@H]2O[C@H](C)[C@@H](O)[C@H](N)[C@@H]2O)C[C@@H]2O[C@](O)(C[C@@H](O)C[C@@H](O)[C@H](O)CC[C@@H](O)C[C@@H](O)CC(=O)O[C@H]1C)C[C@H](O)[C@H]2C(=O)O [Amfotericin, Amphotericin B]
% GVBD ([3]; 0.6 μg/ml, 22 hours in culture, 94 oocytes): 28% | No. of GVBD ([3]; 0.6 μg/ml, 22 hours in culture, of 94 oocytes): 26 | % GVBD ([3]; 1.2 μg/ml priming 5 minutes, then control medium to 22 hours, 98 oocytes): 21% | No. of GVBD ([3]; 1.2 μg/ml priming 5 minutes, then control medium to 22 hours, of 98 oocytes): 21 | % GVBD ([3]; 1.2 μg/ml priming 10 minutes, then control medium to 22 hours, 88 oocytes): 29% | No. of GVBD ([3]; 1.2 μg/ml priming 10 minutes, then control medium to 22 hours, of 88 oocytes): 26 | % GVBD ([3]; 1.2 μg/ml priming 30 minutes, then control medium to 22 hours, 116 oocytes): 36% | No. of GVBD ([3]; 1.2 μg/ml priming 30 minutes, then control medium to 22 hours, of 116 oocytes): 42 | % GVBD ([3]; 1.2 μg/ml priming 120 minutes, then control medium to 22 hours, 50 oocytes): 50% | No. of GVBD ([3]; 1.2 μg/ml priming 120 minutes, then control medium to 22 hours, of 50 oocytes): 25 | % GVBD ([3]; 1.2 μg/ml priming 240 minutes, then control medium to 22 hours, 49 oocytes): 69% | No. of GVBD ([3]; 1.2 μg/ml priming 240 minutes, then control medium to 22 hours, of 49 oocytes): 34 | % GVBD ([3]; 1.2 μg/ml, 22 hours in culture, 121 oocytes): 76% | No. of GVBD ([3]; 1.2 μg/ml, 22 hours in culture, of 121 oocytes): 92

EGF: epidermal growth factor
% GVBD ([4]; 68 oocytes): 31^c,d % | No. of GVBD ([4]; of 68 oocytes): 21
